According to patent US4000269A, “S-(α-substituted-arylmethylthio, -arylmethylsulfinyl, and -arylmethylsulfonyl)methyl phosphorus esters used as insecticides” (priority 1975, dated 1976):

Columns and labels:
[1] = Mammalian Toxicity Studies (LD50 for Rats); design: species or system male albino rats (Carworth Farms Nelson strain); details: rat, in vivo; 14-day observation; corn oil
Protocol: Twenty male albino rats or mice of the Carworth Farms Nelson strain (CFI strain for mice)(or other suitable strain) weighing approximately 90 to 120 grams (18-20g. for mice) are selected. Basically, these animals are fasted 24 hours before dosing. Mice are not fasted.
For materials which are soluble or easily dispersed in an aqueous medium, a 20% solution or suspension is prepared in an aqueous solution of 0.2% agar and 0.1% "Tween" 80. The same series of dosages (grams or milliliters of material per kilogram of animal body weight) are used for all materials in this test. If no previous information is available on the compound or its analogs, a maximum dosage of 10 g/kg is selected to differ by a geometric factor of 2 from the preceding dose, i.e., 10, 5, 2.5, 1.25 g/kg. A sufficient number of dosages are given so as to bracket a 50% response. The animals are observed for several hours after dosing and daily over a 14-day observation period. At the end of this period the survivors are sacrificed, weighed and subjected to a gross autopsy. The results are tabulated and the LD50 is calculated by the method of moving averages using the tables constructed by Weil. [Weil, C. S., Biometrics, 8: (3), 249-263, 1952].
Samples received as liquids may be administered undiluted or as suspensions in aqueous Agar-Tween, depending on the viscosity of the material. If the material is believed to be relatively non-toxic, an initial maximum dosage of 10 ml/kg is selected and subsequent dosages are selected based upon the severity of gross signs of toxicity.
For organic phosphate anticholinesterase insecticides, the procedure is modified somewhat. The phosphates are readied for administration by preparing a solution or dispersion in corn oil (Mazola), the concentration of which is adjusted so that the total volume of the dose is 20 ml/kg ([…]) in every case. The initial solution is prepared by deciding upon the maximum dosage in mg/kg to be administered and preparing 50 ml. (10 in mouse test) of this solution of such a concentration that the desired dosage in mg/kg is delivered when 2 ml. (0.5 ml. in mouse test) of the solution is administered for 100 g (20 g in mouse) of rat body weight. Serial dilutions differing by a factor of two are then prepared for each lower dosage level.

[2] = system: Southern corn rootworm larvae (Diabrotica undecimpunctata); assay: Southern Corn Rootworm Control (treated soil, dust on talc); format: in vivo; details: 144 h, potting soil, mortality after 6 days, read-out: Percent Control of Southern Corn Rootworm Larvae; for mortality at 1120.85 g/ha: 1 lbs./Acre; for mortality at 11208.5 g/ha: 10 lbs./Acre; for mortality at 56042.5 g/ha: 50 lbs./Acre
Protocol: (§1) Compounds are prepared as dusts on talc. The compounds are dissolved in acetone, and appropriate rates obtained by serial dilution. One and one-quarter milliliters of solution is pipetted onto a standard volume of dust in 1 -ounce jars, and the acetone allowed to evaporate. Twenty-five milliliters of moist soil and about 200 millet seeds are placed in the jar, capped and the contents thoroughly mixed. Ten second-instar larvae of the Southern corn rootworm (Diabrotica undecimpunctata ) are then placed in each jar. Mortality counts are made after 6 days and percent mortality determined.

[3] = system: False wireworm larvae (Eleodes suturalis); assay: False Wireworm Control (treated soil, dust on talc); format: in vivo; details: 144 h, potting soil, mortality after 6 days, read-out: Percent Control of False Wireworms
Protocol: as §1, with “three wheat” for “200 millet”, “capped,” for “capped”, “False wireworm” for “second-instar”, “(Eleodes suturalis ), 10 days old,” for “of the Southern corn rootworm (Diabrotica undecimpunctata )”

[4] = system: Southern Armyworm (Prodenia eridania); assay: D. Southern Armyworm leaf-dip test; format: in vivo; details: Spodoptera eridania, 48 h, 2 days, read-out: Percent Mortality, Southern Armyworm
Protocol: Compounds are tested at 1000 and 100 ppm. in solution or suspension in 65 % acetone/35 % water. Sieva lima bean primary leaves are dipped for 3 seconds in the test solution and set in a hood on a screen to dry. When dry, each leaf is placed in a 4 -inch petri dish which has a moist filter paper in the bottom and ten third-instar armyworm larvae about 3/8 inch long. The dishes are covered and held at 80° F., and 60 % R.H. After 2 days, mortality counts and estimates of the amount of feeding are made. Compounds showing partial kill and/or inhibition of feeding are held an extra day for further observations.

[5] = system: Malaria Mosquito (Anopheles quadrimaculatus); assay: H. Malaria Mosquito Adult Test; format: in vivo; details: 24 h, adults, 1 day, read-out: Percent Mortality, Malaria Mosquito
Protocol: Solutions of 65% acetone/35% water containing 10 ppm. of test compound are poured into wide-mouth 2-ounce jars, each containing a microscope slide. The slides are removed from the test solution with forceps and laid horizontally to dry on a wide-mouth 4-ounce bottle. When dry, they are placed in the same 4-ounce bottle and 10 4- to 5-day-old mosquitoes of mixed sexes are added to each bottle. A piece of cotton gauze held on by an elastic band serves as a lid, and wad of cotton soaked in 10% honey solution serves as food. Mortality counts are made after 1 day at 80° F., 50% R.H. (relative humidity) Data obtained with the above procedures are reported in Table II below.

[6] = system: Tarnished Plant Bug (Lygus lineolaris); assay: A. Tarnished Plant Bug leaf-dip test; format: in vivo; details: 48 h, 100 ppm., 2 days, read-out: Percent Mortality, Tarnished plant Bug
Protocol: (§2) Test compounds are prepared as 1000 ppm. solutions in 10 % acetone, 0.2 % Alrodyne 315 , and 89.8 % water. A tenfold dilution is made with 65 % acetone and 35 % water. The primary leaves of Sieva lima bean plants are dipped for 3 to 5 seconds in the test solutions and placed in an exhaust hood to dry. When dry, each leaf is placed in a 4 -inch petri dish with a moist filter paper on the bottom. Ten adult Lygus bugs are aspirated from the stock culture and placed in the petri dish. The dishes are covered and held at 80° F. and 50 % R.H. After 2 days, mortality counts are made.

[7] = system: Boll Weevil (Anthonomus grandis); assay: B. Boll Weevil leaf-dip test; format: in vivo; details: 48 h, 100 ppm., 2 days, read-out: Percent Mortality, Boll Weevil
Protocol: as §2, with “The first or second true leaf” for “The primary leaves”, “of young cotton” for “of Sieva lima bean”, “plants is” for “plants are”, “test solution” for “test solutions”, “adult boll weevils” for “adult Lygus bugs”, “are removed” for “are aspirated”

[8] = system: Western Potato Leafhopper (Empoasca abrupta); assay: G. Western Potato Leafhopper plant-dip test; format: in vivo; details: 48 h, 2 days, read-out: Percent Mortality, Western Potato Leafhopper
Protocol: Sieva lima bean plants with the primary leaf expanded to 3 to 4 inches are dipped into 100 or 10 ppm. 50 % acetone/50 % water solutions and set in the hood to dry. A 1 -inch piece of the tip of a treated leaf is cut off and placed in a 4 -inch petri dish with a moist filter paper in the bottom. From 3 to 10 second-instar nymphs are tapped from the culture plants into the test dish and rapidly covered. Mortality counts are made after 2 days at 80° F., and 50 % R.H.

[9] = system: Mexican Bean Beetle (Epilachna varivestis); assay: F. Mexican Bean Beetle leaf-dip test; format: in vivo; details: 48 h, 2 days, read-out: Percent Mortality, Mexican Bean Beetle
Protocol: Compounds to be tested are made up as 100 or 10 ppm. solutions in 65 % acetone/35 % water. Sieva lima bean leaves are dipped in the test solution and set in the hood to dry. When dry, they are placed in 4 -inch petri dishes which have a moist filter paper in the bottom, and 10 third-instar bean beetles are added to each dish. The dishes are covered and held at 80° F., 60 % R.H. After 2 days, mortality counts and estimates of the amount of feeding are made. Compounds showing kills greater than 75 % are further tested at tenfold dilutions in 65 % acetone/35 % water.

[10] = system: Two-spotted Spider Mite (Tetranychus urticae); assay: E. Two-spotted Spider Mite plant-dip test; format: in vivo; details: 48 h, read-out: Percent Mortality, Two-spotted Spider Mite; for mortality at 100 ppm: 2 days
Protocol: Sieva lima bean plants with primary leaves 3 to 4 inches long are infested with about 100 adult mites per leaf 4 hours before use in this test. The mite and egg infested plants are dipped for 3 seconds in the same solutions used in the aphid test, and the plants set in the hood to dry. They are held for 2 days at 80° F., 60% R.H., and the adult mite mortality estimated on one leaf under a steroscopic microscope. The other leaf is left on the plant an additional 5 days and then examined at 10 X power to estimate the kill of eggs and of newly hatched nymphs, giving a measure of ovicidal and residual action, respectively.

Bean Aphid (Aphis fabae) = assay: C. Bean Aphid spray test; format: in vivo; details: 48 h, 2 days, read-out: Percent Mortality, Bean Aphid
Protocol: Compounds are tested at 100 , 10 and 1 ppm. in solution or suspension in 65 % acetone/35 % water. Two-inch fiber pots each containing a nasturtium plant 2 inches high and infested with about 150 aphids 2 days earlier, are placed on a turntable (4 RPM) and sprayed for two revolutions with a No. 154 DeVilbiss Atomizer at 20 psi. air pressure. The spray tip is held about 6 inches from the plants, and the spray is directed so as to give complete coverage of the aphids and the plants. The sprayed plants are laid on their sides on white enamel trays. Mortality estimates are made after holding for 2 days at 70° F. and 50% R.H.

Compound	LD50 at 336 h [1] [mg/kg]	mortality at 1120.85 g/ha [2] [%]	mortality at 11208.5 g/ha [2] [%]	mortality at 56042.5 g/ha [2] [%]	mortality at 11208.5 g/ha ([3]; 10 lbs./Acre) [%]	mortality at 56042.5 g/ha ([3]; 50 lbs./Acre) [%]	mortality at 100 ppm [4] [%]	mortality at 1000 ppm [4] [%]	mortality at 10 ppm [5] [%]	mortality at 100 ppm [6] [%]	mortality at 100 ppm [7] [%]	mortality at 10 ppm [8] [%]	mortality at 100 ppm [8] [%]	mortality at 10 ppm [9] [%]	mortality at 100 ppm [9] [%]	mortality at 100 ppm [10] [%]	mortality at 300 ppm [10] [%]	mortality at 1 ppm (Bean Aphid (Aphis fabae)) [%]	mortality at 10 ppm (Bean Aphid (Aphis fabae)) [%]	mortality at 100 ppm (Bean Aphid (Aphis fabae)) [%]
CCOP(=S)(OCC)SCSC(C)(C)c1ccc(Cl)cc1 [Example 6, S-(p-Chloro-α,α-Dimethylbenzylthio)methyl O,O-Diethyl Phosphorodithioate]	79	0	90	100	–	–	–	–	–	–	–	–	–	–	–	–	–	–	–	–
CC(C)OP(=S)(OC(C)C)SCSC(C)(C)c1ccccc1 [Example 20, S-(α,α-Dimethylbenzylthio)methyl O,O-diisopropylPhosphorodithioate]	–	–	0	100	0	100	–	–	–	–	–	–	–	–	–	–	–	–	–	–
COP(=S)(OC)SCSC(C)(C)c1cccc(Cl)c1Cl [Example 23, S-(2,3-Dichloro-α,α-dimethylbenzylthio)methyl O,O-Dimethyl Phosphorodithioate]	> 500	60	90	100	–	–	–	–	–	–	–	–	–	–	–	–	–	–	–	–
COP(=S)(OC)SCSC(C)(C)c1cc(Cl)ccc1Cl [Example 25, S-(2,5-Dichloro-α,α-dimethylbenzylthio)methyl O,O-Dimethyl Phosphorodithioate]	800	0	100	100	–	–	–	–	–	–	–	–	–	–	–	–	–	–	–	–
COP(=S)(OC)SCSC(C)(C)c1ccc(Cl)cc1 [drawing 22]	–	–	–	–	–	–	100	100	100	0	100	0	100	0	50	100	100	100	100	100
COP(=O)(SC)SCSC(C)(C)c1ccc(Cl)cc1 (centres unmarked) [drawing 23]	–	–	–	–	–	–	0	100	0	0	90	0	100	0	40	0	50	95	100	100
